Our source for the IC50 values is patent US11236069B2, “KIF18A inhibitors” (AMGEN INC., priority 2018, dated 2022).

Structures are written as SMILES. pIC50: −log10 of the molar value.

As usually defined, the pIC50 is −log10 of the IC50, conventionally taken in molar units.

One assay deals with Recombinant human KIF18A (1-467 His-tagged) protein (Homo sapiens (Human), UniProt Q8NI77). As to the kind of experiment: KIF18A Enzyme Assay: microtubule-stimulated ATPase activity (ADP-Glo). Particulars: read-out: KIF18A ATPase IC50. Background: ADP-Glo first removes unused ATP, then detects ADP through luciferase.
Chain of Recombinant human KIF18A (1-467 His-tagged) protein (Q8NI77 1-467): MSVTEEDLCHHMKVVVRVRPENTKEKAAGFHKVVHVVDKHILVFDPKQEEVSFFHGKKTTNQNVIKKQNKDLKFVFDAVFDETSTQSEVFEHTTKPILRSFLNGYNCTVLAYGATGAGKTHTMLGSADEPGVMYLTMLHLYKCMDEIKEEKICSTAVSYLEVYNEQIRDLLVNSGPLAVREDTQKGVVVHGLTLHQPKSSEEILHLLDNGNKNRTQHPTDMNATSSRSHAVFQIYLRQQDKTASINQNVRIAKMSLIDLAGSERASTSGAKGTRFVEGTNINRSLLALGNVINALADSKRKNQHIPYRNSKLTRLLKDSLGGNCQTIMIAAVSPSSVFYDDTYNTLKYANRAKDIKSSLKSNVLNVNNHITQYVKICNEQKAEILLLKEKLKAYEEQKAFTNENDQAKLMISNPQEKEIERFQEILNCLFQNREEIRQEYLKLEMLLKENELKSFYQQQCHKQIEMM
Chain of Recombinant human KIF18A (1-467 His-tagged) protein (P02550 whole entry partner): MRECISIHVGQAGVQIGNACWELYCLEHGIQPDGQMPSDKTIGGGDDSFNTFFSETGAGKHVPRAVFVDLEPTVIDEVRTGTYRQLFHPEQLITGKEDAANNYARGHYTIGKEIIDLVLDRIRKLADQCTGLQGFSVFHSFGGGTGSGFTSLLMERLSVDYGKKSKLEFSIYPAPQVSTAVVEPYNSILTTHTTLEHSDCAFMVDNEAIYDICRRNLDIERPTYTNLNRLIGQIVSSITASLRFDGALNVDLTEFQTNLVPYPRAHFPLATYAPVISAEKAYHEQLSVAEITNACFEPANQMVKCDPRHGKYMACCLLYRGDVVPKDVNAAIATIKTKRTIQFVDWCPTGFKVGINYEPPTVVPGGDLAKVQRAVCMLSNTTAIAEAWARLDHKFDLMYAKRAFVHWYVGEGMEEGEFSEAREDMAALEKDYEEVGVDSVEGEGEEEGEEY
Chain of Recombinant human KIF18A (1-467 His-tagged) protein (P02554 whole entry partner): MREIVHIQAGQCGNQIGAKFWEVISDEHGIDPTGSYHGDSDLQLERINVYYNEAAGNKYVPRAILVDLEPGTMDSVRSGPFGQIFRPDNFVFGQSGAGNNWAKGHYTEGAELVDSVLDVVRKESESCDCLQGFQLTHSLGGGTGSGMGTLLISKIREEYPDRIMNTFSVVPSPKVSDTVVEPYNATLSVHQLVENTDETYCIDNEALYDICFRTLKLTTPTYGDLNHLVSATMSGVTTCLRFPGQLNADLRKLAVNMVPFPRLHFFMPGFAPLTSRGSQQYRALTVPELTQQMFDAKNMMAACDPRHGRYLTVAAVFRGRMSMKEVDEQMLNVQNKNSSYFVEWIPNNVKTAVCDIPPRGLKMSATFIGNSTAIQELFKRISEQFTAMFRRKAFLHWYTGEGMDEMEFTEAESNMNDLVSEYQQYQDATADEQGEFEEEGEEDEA
Excerpt: KIF18A Enzyme Assay: Microtubule-stimulated ATPase activity assay is used to measure KIF18A enzyme activity after treatment with compound. Compounds were 2-fold serially diluted in DMSO (Sigma Inc) over 22-point concentration range. […] The assay measures ADP formed from the ATPase reaction.
Regarding `Cc1cc(NC(=O)c2ccc(NS(=O)(=O)[C@@H](C)CO)cc2N2CCC3(CC2)CC3)nc(N2CCC(F)(F)CC2)n1` [Example 5-2, (S)-N-(2-(4,4-Difluoropiperidin-1-yl)-6-methylpyrimidin-4-yl)-4-((2-hydroxy-1-methylethyl)sulfonamido)-2-(6-azaspiro[2.5]octan-6-yl)benzamide], the pIC50 is 7.15.

The same assay, now with this note: read-out: KIF18A ATPase IC50; 30 nM KIF18A, 30 μg/mL pig microtubules, ATP at Km 75 μM, ADP-Glo luminescence.
Turning to `Cc1cc(NC(=O)c2ccc([S@](=N)(=O)C3CC3)cc2N2CCC3(CC2)CC3)nc(N2CCC(F)(F)CC2)n1` (single isomer, unassigned) [Example 18-1, 2-(6-Azaspiro[2.5]octan-6-yl)-4-(R-cyclopropylsulfonimidoyl)-N-(2-(4,4-difluoro-1-piperidinyl)-6-methyl-4-pyrimidinyl)benzamide], the pIC50 is 7.19.

For the molecule `CCS(=O)(=O)Nc1ccc(C(=O)Nc2cc(C)nc(N3CCC(F)CC3)n2)c(N2CCC3(CC2)CC3)c1` [Example 11-82, 4-(Ethylsulfonamido)-N-(2-(4-fluoropiperidin-1-yl)-6-methylpyrimidin-4-yl)-2-(6-azaspiro[2.5]octan-6-yl)benzamide], the negative-log IC50 (pIC50) is 7.29.

With `Cc1cc(NC(=O)c2ccc(NS(=O)(=O)CCO)cc2N2CCC3(CC2)CC3)nc(N2CCO[C@@H](C)C2)n1` [Example 11-45, (S)-4-((2-Hydroxyethyl)sulfonamido)-N-(6-methyl-2-(2-methylmorpholino)pyrimidin-4-yl)-2-(6-azaspiro[2.5]octan-6-yl)benzamide], the pIC50 is 7.46.

For `Cc1cc(NC(=O)c2cc(C)c(NS(=O)(=O)CCO)cc2N2CCC3(CC2)CC3)nc(N2CCC(F)(F)CC2)n1` [Example 6-35, N-(2-(4,4-Difluoropiperidin-1-yl)-6-methylpyrimdin-4-yl)-4-((2-hydroxyethyl)sulfonamido)-5-methyl-2-(6-azaspiro[2.5]octan-6-yl)benzamide], the negative-log IC50 (pIC50) is 6.84.

As to `Cc1cc(NC(=O)c2cc(Cl)c(NS(=O)(=O)CCO)cc2N2CCC3(CC2)CC3)nc(N2CCC(F)(F)CC2)n1` [Example 6-34, 5-Chloro-N-(2-(4,4-difluoropiperidin-1-yl)-6-methylpyrimidin-4-yl)-4-((2-hydroxyethyl)sulfonamido)-2-(6-azaspiro[2.5]octan-6-yl)benzamide], the pIC50 is 7.04.

For `Cc1cc(NC(=O)c2ccc(NS(=O)(=O)CCO)cc2N2CCC3(CC2)CC3)nc(N2CCOC(C)(C)C2)n1` [Example 11-46, N-(2-(2,2-Dimethylmorpholino)-6-methylpyrimidin-4-yl)-4-((2-hydroxyethyl)sulfonamido)-2-(6-azaspiro[2.5]octan-6-yl)benzamide], the negative-log IC50 (pIC50) was 6.82.

In the case of `O=C(Nc1cc(C2CC2)nc(N2CCC(F)(F)CC2)n1)c1ccc(NS(=O)(=O)CCO)cc1N1CCC2(CC1)CC2` [Example 6-39, N-(6-Cyclopropyl-2-(4,4-difluoropiperidin-1-yl)pyrimidin-4-yl)-4-((2-hydroxyethyl)sulfonamido)-2-(6-azaspiro[2.5]octan-6-yl)benzamide], the negative logarithm of the IC50 (pIC50) is 6.65.

Take `Cc1cc(NC(=O)c2ccc(S(=O)(=O)NCCO)cc2N2CCC3(CC2)CC3)nc(OCCC(F)(F)F)n1` [Example 17-2, 4-(N-(2-Hydroxyethyl)sulfamoyl)-N-(6-methyl-2-(3,3,3-trifluoropropoxy)pyrimidin-4-yl)-2-(6-azaspiro[2.5]octan-6-yl)benzamide]: the pIC50 is 7.38.

With `Cc1cc(NC(=O)c2ccc(NS(=O)(=O)[C@H]3CCOC3)cc2N2CCC3(CC2)CC3)nc(N2CCC(F)(F)CC2)n1` [Example 11-72, (S)-N-(2-(4,4-Difluoropiperidin-1-yl)-6-methylpyrimidin-4-yl)-2-(6-azaspiro[2.5]octan-6-yl)-4-((tetrahydrofuran)-3-sulfonamido)benzamide], the pIC50 is 6.87.

With `CC[S@](=N)(=O)c1ccc(C(=O)Nc2cc(C)nc(N3CCC(F)(F)CC3)n2)c(N2CCC3(CC2)CC3)c1` (single isomer, unassigned) [Example 19-4, 2-(6-Azaspiro[2.5]octan-6-yl)-N-(2-(4,4-difluoro-1-pieridinyl)-6-methyl-4-pyrimidinyl)-4-(R-ethylsulfonimidoyl)benzamide], the pIC50 was 7.46.

Consider `Cc1cc(NC(=O)c2ccc(NS(=O)(=O)CCO)cc2N2CCC3(CC2)CC3)nc(N2CC(O)(C(F)(F)F)C2)n1` [Example 11-18, N-(2-(3-Hydroxy-3-(trifluoromethyl)azetidin-1-yl)-6-methylpyrimidin-4-yl)-4-((2-hydroxyethyl)sulfonamido)-2-(6-azaspiro[2.5]octan-6-yl)benzamide], for which the pIC50 is 7.19.

Take `O=C(Nc1ccnc(N2CC(F)(F)C2)n1)c1ccc(NS(=O)(=O)CCO)cc1N1CCC2(CC1)CC2` [Example 11-7, N-(2-(3,3-Difluoroazetidin-1-yl)pyrimidin-4-yl)-4-((2-hydroxyethyl)sulfonamido)-2-(6-azaspiro[2.5]octan-6-yl)benzamide]: the negative-log IC50 (pIC50) was 7.64.

In the case of `Cc1cc(NC(=O)c2ccc(NS(=O)(=O)CCO)cc2N2CCC3(CC2)CC3)nc(N2CCC(C)(F)CC2)n1` [Example 11-52, N-(2-(4-Fluoro-4-methylpiperidin-1-yl)-6-methylpyrimidin-4-yl)-4-((2-hydroxyethyl)sulfonamido)-2-(6-azaspiro[2.5]octan-6-yl)benzamide], the negative-log IC50 (pIC50) is 7.20.

As for `Cc1cc(NC(=O)c2ccc(NS(=O)(=O)[C@H](CO)CF)cc2N2CCC3(CC2)CC3)nc(N2CCC(F)(F)CC2)n1` [Example 16-1, (R)-N-(2-(4,4-Difluoropiperidin-1-yl)-6-methylpyrimidin-4-yl)-4-((2-fluoro-1-(hydroxymethyl)ethyl)sulfonamido)-2-(6-azaspiro[2.5]octan-6-yl)benzamide], the pIC50 was 7.05.

As for `Cc1cc(NC(=O)c2ccc(NS(=O)(=O)CCO)cc2N2CCC3(CC2)CC3)nc(N2CCCC2)n1` [Example 11-26, 4-((2-Hydroxyethyl)sulfonamido)-N-(6-methyl-2-(pyrrolidin-1-yl)pyrimidin-4-yl)-2-(6-azaspiro[2.5]octan-6-yl)benzamide], the pIC50 is 7.15.

As to `Cc1cc(NC(=O)c2ccc(NS(=O)(=O)CCO)cc2N2CCC3(CC2)CC3)nc(N2CCC3CC32)n1` (centres unmarked) [Example 11-28, N-(2-(2-Azabicyclo[3.1.0]hexan-2-yl)-6-methylpyrimidin-4-yl)-4-((2-hydroxyethyl)sulfonamido)-2-(6-azaspiro[2.5]octan-6-yl)benzamide], the pIC50 is 7.23.

`O=C(Nc1ccnc(N2CCC(F)(F)CC2)c1F)c1ccc(NS(=O)(=O)CCO)cc1N1CCC2(CC1)CC2` [Example 11-63, N-(2-(4,4-Difluoropiperidin-1-yl)-3-fluoropyridin-4-yl)-4((2-hydroxyethyl)sulfonamido)-2-(6-azaspiro[2.5]octan-6-yl)benzamide]: the negative-log IC50 (pIC50) was 7.66.

Consider `Cc1cc(NC(=O)c2ccc(NS(=O)(=O)CCO)cc2N2CCC3(CC2)CC3)nc(N2CC[C@H]3C[C@H]3C2)n1` [Example 11-43, N-(2-((1R,6R)-3-Azabicyclo[4.1.0]heptan-3-yl)-6-methylpyrimidin-4-yl)-4-((2-hydroxyethyl)sulfonamido)-2-(6-azaspiro[2.5]octan-6-yl)benzamide], for which the negative logarithm of the IC50 (pIC50) was 7.46.

Consider `Cc1cc(NC(=O)c2ccc(S(C)(=N)=O)cc2N2CCC3(CC2)CC3)nc(N2CCC(F)(F)CC2)n1` (centres unmarked) [Example 19-2, N-(2-(4,4-Difluoropiperidin-1-yl)-6-methylpyrimidin-4-yl)-4-(methylsulfonimidoyl)-2-(6-azaspiro[2.5]octan-6-yl)benzamide], for which the pIC50 was 6.36.
